Patent US20210355104A1, “ADENOSINE RECEPTOR BINDING COMPOUNDS” (Nikang Therapeuticsm Inc., priority 2018, published 2021)
Where “and” joins values, the source holds several entries; their conditions need not be identical. Identical values can stand only once. Like-named read-outs stand apart in the source and are kept apart here.

Experiments:
[1] = biological target: Adenosine A2A receptor (Homo sapiens, UniProt P29274); test: cAMP assay in 293A cells stably expressing the adenosine A2A receptor (CGS21680 stimulation, HTRF); format: cell-based; design: expressed in transfected cells; host or cells: 293A cells (Invitrogen, Cat# R705-07) infected with A2A-expressing lentivirus (custom packaged by Biosettia), puromycin selected; conditions: 0.1% BSA, read-out: cAMP (nM) 0.1% BSA, 1 uM CGS
[2] = tested on: p-CREB (phosphorylated cAMP response-element binding protein) in human whole blood; test: p-CREB assay in human whole blood by flow cytometry (NECA stimulation, CD4 staining); format: cell-based
Procedure: Assay protocol for p-CREB (phosphorylated cAMP response-element binding protein) in human whole blood by flow cytometry
Fresh human whole blood (Biological Specialty Corporation) was added at 100 ul per wellinto a 96-well plate and treated with test compounds (Serial dilutions of 1:3 with starting concentration at 30 uM, 11 concentrations total, in the presence of adenosine deaminase) for one hour at room temperature on a plate shaker. Then 10 ul of 10× NECA (50 uM stock in PBS) and 10 ul of 10 × Rolipram (50 uM stock in PBS) were added, with designated wells for unstimulated (Rolipram+DMSO) and stimulated (Rolipram+NECA+DMSO) conditions. The plates were mixed well and incubated at room temperature for 30 min on a plate shaker. 1× lyse/Fix buffer (5× stock, BD #558049) was warmed to 37° in a water bath. 1200 ul of pre-warmed 1× lyse/Fix buffer was then added to the plate, which was then sealed and mixed by inverting the plate a few times. The plate was then incubated for 30 min at 37° in a water bath. After incubation, the plate was centrifuged at 1600 rpm for 5 min and the supernatant was decanted, then 1200 ul PBS was added and the plate was mixed by inverting a few times followed by centrifuging at 1600 rpm for 5 min and again decanting the supernatant. Then, 200 ul FIX PERM buffer II (BD #558052) was added and the plate was mixed well, then kept on ice for 45 min After spinning the plate at 1600 rpm for 5 min the supernatant was again decanted. Then was added 200 ul staining buffer (BD #554657), and the plate was mixed well and spun at 1600 rpm for 5 min, then the supernatant was again decanted. 200 ul staining buffer was added, the plate was mixed well and the plate was sealed at this step for storage at 4° overnight or until staining. Before staining, the plate was spun at 1600 rpm for 5 min and the supernatant was again decanted. Antibody mix in staining buffer was prepared (75 ul/well, 1:50 dilution for p-CREB antibody from Cell Signaling Tech #14001S, 1:200 dilution for CD4 antibody from BD #566320) and the cells were resuspended in the above antibody mix solution. After mixing well, the plate was incubated (shielded from light) at room temperature for two hours on a plate shaker. It was then spun at 1600 rpm for 5 min and the supernatant was decanted. 200 ul staining buffer was then added to wash cells, and the plate was then mixed by shaking or pipetting. The wash step was repeated at least one more time, and after the final wash, cells were resusptended in 200 ul staining buffer in U bottom plate for flow cytometry analysis.

[3] = 293A cells stably expressing A2A receptor, 1 uM CGS21680 stimulation, replicate values separated by /
[4] = Homo sapiens, replicate values separated by /

Adenosine A2A receptor, sequence (P29274 whole entry): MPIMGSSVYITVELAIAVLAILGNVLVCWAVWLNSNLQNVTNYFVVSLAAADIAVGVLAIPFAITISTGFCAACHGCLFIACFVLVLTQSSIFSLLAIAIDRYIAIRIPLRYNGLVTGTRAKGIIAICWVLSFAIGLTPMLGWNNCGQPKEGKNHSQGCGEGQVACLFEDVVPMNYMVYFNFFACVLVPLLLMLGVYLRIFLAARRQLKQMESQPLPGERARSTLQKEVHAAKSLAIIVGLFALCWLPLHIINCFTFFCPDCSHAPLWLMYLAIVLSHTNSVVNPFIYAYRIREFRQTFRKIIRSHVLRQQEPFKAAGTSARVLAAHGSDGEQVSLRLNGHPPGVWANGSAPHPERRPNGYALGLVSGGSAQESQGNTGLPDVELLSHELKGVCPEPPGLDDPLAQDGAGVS

`Cc1cc(-c2c(OCc3cccc(N(C)C)n3)nc(N)nc2-c2ccc(F)cc2)cc(C(F)F)n1` [Example 282, 5-(2-(difluoromethyl)-6-methylpyridin-4-yl)-4-((6-(dimethylamino)pyridin-2-yl)methoxy)-6-(4-fluorophenyl)pyrimidin-2-amine] was tested, and the IC50 ([1]; 293A-A2AR cells, 1 uM CGS) was 90 nM and 21 nM and 100 nM and the IC50 ([2]; Homo sapiens) was 50 nM.

`Cc1cc(-c2c(OCCN(C)c3nccc(C(C)(C)C(=O)O)n3)nc(N)nc2-c2ccc(F)cc2)cc(C(F)F)n1` [Example 373, 2-(2-((2-((2-amino-5-(2-(difluoromethyl)-6-methylpyridin-4-yl)-6-(4-fluorophenyl)pyrimidin-4-yl)oxy)ethyl)(methyl)amino)pyrimidin-4-yl)-2-methylpropanoic acid] was tested, and the IC50 ([1]; 293A-A2AR cells, 1 uM CGS) was 240 nM and 248 nM and 387 nM and 191 nM and the IC50 ([2]; Homo sapiens) was 421 nM.

For `Cc1cc(-c2c(OCCc3cccc(C(C)(C)O)n3)nc(N)nc2-c2ccc(F)cc2)cc(C(F)F)n1` [Example 349, 2-(6-(2-((2-amino-5-(2-(difluoromethyl)-6-methylpyridin-4-yl)-6-(4-fluorophenyl)pyrimidin-4-yl)oxy)ethyl)pyridin-2-yl)propan-2-ol], the IC50 ([1]; 293A-A2AR cells, 1 uM CGS) was 261 nM and 120 nM and the IC50 ([2]; Homo sapiens) was 55 nM.

`Cc1cc(-c2c(OCCN(C)c3cccc(C(C)(C)C(=O)O)n3)nc(N)nc2-c2ccc(F)cc2)cc(C(F)F)n1` [Example 339, 2-(6-((2-((2-amino-5-(2-(difluoromethyl)-6-methylpyridin-4-yl)-6-(4-fluorophenyl)pyrimidin-4-yl)oxy)ethyl)(methyl)amino)pyridin-2-yl)-2-methylpropanoic acid] was tested, and the IC50 ([1]; 293A-A2AR cells, 1 uM CGS) was 561 nM and 795 nM and 230 nM and the IC50 ([2]; Homo sapiens) was 166 nM.

For `Cc1cc(-c2c(OCc3cccc(C(C)(C)NC(CO)CO)n3)nc(N)nc2-c2ccc(F)cc2)cc(C(F)F)n1` [Example 417, 2-((2-(6-(((2-amino-5-(2-(difluoromethyl)-6-methylpyridin-4-yl)-6-(4-fluorophenyl)pyrimidin-4-yl)oxy)methyl)pyridin-2-yl)propan-2-yl)amino)propane-1,3-diol], the IC50 [1, 3] was 60 nM and 44 nM and the IC50 [2, 4] was 38.7 nM.

For `Cc1cc(-c2c(OCc3nc4ccccc4n3C(F)F)nc(N)nc2-c2ccc(F)cc2)cc(C(F)F)n1` [Example 355, 4-((1-(difluoromethyl)-1H-benzo[d]imidazol-2-yl)methoxy)-5-(2-(difluoromethyl)-6-methylpyridin-4-yl)-6-(4-fluorophenyl)pyrimidin-2-amine], the IC50 ([1]; 293A-A2AR cells, 1 uM CGS) was 10.2 nM and 11 nM and 13 nM and the IC50 ([2]; Homo sapiens) was 5.7 nM.

`Cc1cc(-c2c(OCc3nccs3)nc(N)nc2-c2ccc(F)cc2)cc(C(F)F)n1` [Example 350, 5-(2-(difluoromethyl)-6-methylpyridin-4-yl)-4-(4-fluorophenyl)-6-(thiazol-2-ylmethoxy)pyrimidin-2-amine] was tested, and the IC50 ([1]; 293A-A2AR cells, 1 uM CGS) was 26.1 nM and 5.9 nM and 30 nM and the IC50 ([2]; Homo sapiens) was 4 nM.

`Cc1cc(-c2c(OCc3cccc(C(C)(C)C#N)n3)nc(N)nc2-c2ccc(F)cc2)cc(C(F)F)n1` [Example 230, 2-(6-(((2-amino-5-(2-(difluoromethyl)-6-methylpyridin-4-yl)-6-(4-fluorophenyl)pyrimidin-4-yl)oxy)methyl)pyridin-2-yl)-2-methylpropanenitrile] was tested, and the IC50 ([1]; 293A-A2AR cells, 1 uM CGS) was 7 nM and 40 nM and 64 nM, the IC50 [2] was 37.6 nM and the IC50 ([2]; Homo sapiens) was 32.4 nM.

With `Cc1cc(-c2c(OCc3nccc4ccccc34)nc(N)nc2-c2ccc(F)cc2)cc(C(F)F)n1` [Example 381, 5-(2-(difluoromethyl)-6-methylpyridin-4-yl)-4-(4-fluorophenyl)-6-(isoquinolin-1-ylmethoxy)pyrimidin-2-amine] the IC50 ([1]; 293A-A2AR cells, 1 uM CGS) was 16 nM and 3.2 nM and the IC50 ([2]; Homo sapiens) was 36 nM.

An IC50 [1, 3] of 282 nM and an IC50 [2, 4] of 232 nM were found for `Cc1cc(-c2c(OCc3cccc(CNCC(=O)N(C)C)n3)nc(N)nc2-c2ccc(F)cc2)cc(C(F)F)n1` [Example 437, 2-(((6-(((2-amino-5-(2-(difluoromethyl)-6-methylpyridin-4-yl)-6-(4-fluorophenyl)pyrimidin-4-yl)oxy)methyl)pyridin-2-yl)methyl)amino)-N,N-dimethylacetamide] in this work.
